Consider 2 compounds from patent publication US20240350440A1, “EXTRACTION OF ABSCISIC ACID FROM STRAWBERRIES” (KING FAISAL UNIVERSITY, priority 2023, published 2024).

Format in all cases: in vivo
Assay [1] deals with albino rat after inducing myocardial infarction disease. Kind of assay: Oxidative stress markers and antioxidant enzymes in adrenaline-induced myocardial infarction. To be noted: MI induced by high dose of adrenaline. The procedure: (§1) The extracted and purified ABA was tested on an albino rat after inducing myocardial infarction disease by using a high dose of adrenaline at Alexandria faculty of medicine and all tests of examination were performed (chemical, electrocardiograph Histological).

For assay [2] the test system is unchanged. Kind of assay: Biological cardiac markers in adrenaline-induced myocardial infarction. Conditions: MI induced by high dose of adrenaline. The method, then:
as §1

For assay [3] the test system is unchanged. Kind of assay: Electrocardiogram assessment in adrenaline-induced myocardial infarction. To be noted: MI induced by high dose of adrenaline. The method, then: as §1
The test system is the same in assay [4]. Nature of the assay: Histopathological assessment of H&E-stained heart tissue. Further details: key: grade 1 (normal histological the appearance of the myocardium); grade 2 (focal necrosis of myocardium); grade 3 (focal necrosis of myocardial fiber with neutrophil infiltration and interstitial edema); grade 4 (extensive necrosis of myocardial fiber with hemorrhage, interstitial edema, marked neutrophil infiltration and severe myofibrillary degeneration). To be noted: MI rat. The procedure:
as §1
With reference to the Figures, the histopathological assessment of H&E-stained (hematoxylin and eosin stained) heart tissue was scored according to severity of myocardial changes: grade 1 (normal histological the appearance of the myocardium), grade 2 (focal necrosis of myocardium), grade 3 (focal necrosis of myocardial fiber with neutrophil infiltration and interstitial edema), and grade 4 (extensive necrosis of myocardial fiber with hemorrhage, interstitial edema, marked neutrophil infiltration and severe myofibrillary degeneration).

Marks after values point to notes of the source that are not given here.

Consider `CC1=CC(=O)CC(C)(C)C1(O)/C=C/C(C)=C\C(=O)O` (centres unmarked) [Extracted ABA, abscisic acid], for which, in assay [1], the Catalase is 97 ± 1.73^bc U/g protein, the GSH is recorded as 21.66 ± 0.39^a μmol/g protein, the MDA is listed as 5.68 ± 0.27^bcd μmol/g protein and the NO is 47.78 ± 4.49^bc μM/g protein. Further, in assay [2], the CK-MB is 1.14 ± 0.02^bc U/L, the LDH is 482.67 ± 4.63^bc U/L and the Troponin was 1.71 ± 0.02^b ng/ml. For the same compound, in assay [3], the “COP (mean ml/min)” value is recorded as 18.57 ± 1.04^b ml/min, the “HR (mean b/min)” value is 247.4 ± 9.69^cd b/min, the “RR (interval/sec)” value is reported as 0.73 ± 0.034^b sec and the ST height is listed as 42.98 ± 4.05^b mm. For the same compound, the carotid flow mean in assay [3] is 18.06 ± 1.15^b ml/min. Also, in assay [4], the “histopathological score, severity of myocardial changes” value is given as “grade 3”.
As to `CC1=CC(=O)CC(C)(C)[C@@]1(O)/C=C/C(C)=C\C(=O)O` [Standard ABA, abscisic acid], in assay [1], the Catalase is on record as 112 ± 23.09^abc U/g protein, the GSH is given as 20.01 ± 2.27^a μmol/g protein, the MDA is listed as 6.13 ± 1.34^bc μmol/g protein and the NO was 48.61 ± 5.61^bc μM/g protein. In assay [2], the CK-MB is 1.22 ± 0.03^b U/L, the LDH is on record as 587.33 ± 30.12^b U/L and the Troponin is listed as 1.72 ± 0.05^b ng/ml. For the same compound, in assay [3], the “COP (mean ml/min)” value is listed as 17.52 ± 0.1^b ml/min, the “HR (mean b/min)” value was 255.77 ± 1.23^bc b/min, the “RR (interval/sec)” value was 0.7 ± 0.003^c sec and the ST height is given as 39.33 ± 2.15^b mm. For the same compound, the carotid flow mean in assay [3] is reported as 17.4 ± 0.16^b ml/min. Moreover, the “histopathological score, severity of myocardial changes” value in assay [4] is reported as “grade 3”.
